Key:
blackgrass = test: Test B pre/postemergence blackgrass; format: in vivo, Alopecurus myosuroides
Procedure, shortened: (§1)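 Test chemicals in a non-phytotoxic solvent mixture with surfactant were sprayed preemergence onto planted seeds and postemergence onto plants 2 to 18 cm tall (1- to 4-leaf stage). After twelve to sixteen days in a greenhouse, injury was visually rated against untreated controls from 0 (no effect) to 10 (complete control).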

surinam grass = test: Test B pre/postemergence surinam grass; format: in vivo, Brachiaria decumbens
Procedure, shortened: as §1

cocklebur = test: Test B pre/postemergence cocklebur; format: in vivo, Xanthium strumarium
Procedure, shortened: as §1

corn = test: Test B pre/postemergence corn; format: in vivo, Zea mays
Procedure, shortened: as §1

crabgrass = test: Test B pre/postemergence crabgrass; format: in vivo, Digitaria sanguinalis
Procedure, shortened: as §1

giant foxtail = test: Test B pre/postemergence giant foxtail; format: in vivo, Setaria faberii
Procedure, shortened: as §1

pigweed = test: Test B pre/postemergence pigweed; format: in vivo, Amaranthus retroflexus
Procedure, shortened: as §1

rape = test: Test B pre/postemergence rape; format: in vivo, Brassica napus
Procedure, shortened: as §1

soybean = test: Test B pre/postemergence soybean; format: in vivo, Glycine max
Procedure, shortened: as §1

sugar beet = test: Test B pre/postemergence sugar beet; format: in vivo, Beta vulgaris
Procedure, shortened: as §1

wheat = test: Test B pre/postemergence wheat; format: in vivo, Triticum aestivum
Procedure, shortened: as §1

purple nutsedge = test: Test B pre/postemergence purple nutsedge; format: in vivo, Cyperus rotundus
Procedure, shortened: as §1

rice = test: Test B flood test rice; format: in vivo, Oryza sativa
Procedure, shortened: (§2)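 Each value is a visual injury score relative to controls, with 10 meaning complete control and 0 no effect. Evaluation took place twelve to sixteen days after the 2-leaf-stage plants were treated and kept in the greenhouse.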

smallflower flatsedge = test: Test B flood test smallflower flatsedge; format: in vivo, Cyperus difformis
Procedure, shortened: as §2

duck salad = test: Test B flood test duck salad; format: in vivo, Heteranthera limosa
Procedure, shortened: as §2

bamyardgrass = test: Test B flood test barnyardgrass; format: in vivo, Echinochloa crus-galli
Procedure, shortened: as §2

[1] = Postemergence, Rate 62 g/ha, scale 0 to 10, 0 is no effect, 10 is complete control
[2] = Postemergence, Rate 250 g/ha, scale 0 to 10, 0 no effect, 10 complete control
[3] = Preemergence, Rate 62 g/ha, scale 0 to 10, 0 is no effect, 10 is complete control
[4] = Preemergence, Rate 125 g/ha, scale 0 to 10 (0 no effect, 10 complete control)
[5] = Preemergence, Rate 250 g/ha, scale of 0 to 10 where 0 is no effect and 10 is complete control
[6] = Preemergence, Rate 500 g/ha, scale 0 (no effect) to 10 (complete control)
[7] = Rate 125 g/ha, Postemergence, scale 0 to 10, 0 no effect, 10 complete control
[8] = Rate 500 g/ha, Postemergence, 0 to 10 scale (0 no effect, 10 complete control)
[9] = Rate 125 g/ha, Postemergence section (flood test species), scale 0 to 10, 0 no effect, 10 complete control
[10] = Rate 500 g/ha, Postemergence section of Table B, 0 to 10 scale (0 no effect, 10 complete control)
[11] = flood test, listed under Postemergence, Rate 250 g/ha, scale 0 to 10, 0 no effect, 10 complete control

CCN(CC)C(=O)n1oc(=O)n(-c2cc(Cl)cc(Cl)c2)c1=O [Compound 11]
3: Giant foxtail plant response rating (giant foxtail; [6])
8: Crabgrass plant response rating (crabgrass; [6])
0: Blackgrass plant response rating (blackgrass; [1]) | Blackgrass plant response rating (blackgrass; [2]) | Plant response rating, Blackgrass (blackgrass; [3]) | Plant response rating, Blackgrass (blackgrass; [4]) | Plant response rating, Blackgrass (blackgrass; [5]) | Blackgrass plant response rating (blackgrass; [6]) | Blackgrass plant response rating (blackgrass; [7]) | Blackgrass plant response rating (blackgrass; [8]) | B. signalgrass plant response rating (surinam grass; [1]) | B. signalgrass plant response rating (surinam grass; [2]) | Plant response rating, B. signalgrass (surinam grass; [3]) | Plant response rating, B. signalgrass (surinam grass; [4]) | Plant response rating, B. signalgrass (surinam grass; [5]) | B. signalgrass plant response rating (surinam grass; [6]) | B. signalgrass plant response rating (surinam grass; [7]) | B. signalgrass plant response rating (surinam grass; [8]) | Cocklebur plant response rating (cocklebur; [1]) | Cocklebur plant response rating (cocklebur; [2]) | Plant response rating, Cocklebur (cocklebur; [3]) | Plant response rating, Cocklebur (cocklebur; [4]) | Plant response rating, Cocklebur (cocklebur; [5]) | Cocklebur plant response rating (cocklebur; [6]) | Cocklebur plant response rating (cocklebur; [7]) | Cocklebur plant response rating (cocklebur; [8]) | Corn plant response rating (corn; [1]) | Corn plant response rating (corn; [2]) | Plant response rating, Corn (corn; [3]) | Plant response rating, Corn (corn; [4]) | Plant response rating, Corn (corn; [5]) | Corn plant response rating (corn; [6]) | Corn plant response rating (corn; [7]) | Corn plant response rating (corn; [8]) | Crabgrass plant response rating (crabgrass; [1]) | Crabgrass plant response rating (crabgrass; [2]) | Plant response rating, Crabgrass (crabgrass; [3]) | Plant response rating, Crabgrass (crabgrass; [4]) | Plant response rating, Crabgrass (crabgrass; [5]) | Crabgrass plant response rating (crabgrass; [7]) | Crabgrass plant response rating (crabgrass; [8]) | Giant foxtail plant response rating (giant foxtail; [1]) | Giant foxtail plant response rating (giant foxtail; [2]) | Plant response rating, Giant foxtail (giant foxtail; [3]) | Plant response rating, Giant foxtail (giant foxtail; [4]) | Plant response rating, Giant foxtail (giant foxtail; [5]) | Giant foxtail plant response rating (giant foxtail; [7]) | Giant foxtail plant response rating (giant foxtail; [8]) | Redroot pigweed plant response rating (pigweed; [1]) | Redroot pigweed plant response rating (pigweed; [2]) | Plant response rating, Redroot pigweed (pigweed; [3]) | Plant response rating, Redroot pigweed (pigweed; [4]) | Plant response rating, Redroot pigweed (pigweed; [5]) | Redroot pigweed plant response rating (pigweed; [6]) | Redroot pigweed plant response rating (pigweed; [7]) | Redroot pigweed plant response rating (pigweed; [8]) | Rape plant response rating (rape; [1]) | Rape plant response rating (rape; [2]) | Plant response rating, Rape (rape; [3]) | Plant response rating, Rape (rape; [4]) | Plant response rating, Rape (rape; [5]) | Rape plant response rating (rape; [6]) | Rape plant response rating (rape; [7]) | Rape plant response rating (rape; [8]) | Soybean plant response rating (soybean; [1]) | Soybean plant response rating (soybean; [2]) | Plant response rating, Soybean (soybean; [3]) | Plant response rating, Soybean (soybean; [4]) | Plant response rating, Soybean (soybean; [5]) | Soybean plant response rating (soybean; [6]) | Soybean plant response rating (soybean; [7]) | Sugarbeets plant response rating (sugar beet; [1]) | Sugarbeets plant response rating (sugar beet; [2]) | Plant response rating, Sugarbeets (sugar beet; [3]) | Plant response rating, Sugarbeets (sugar beet; [4]) | Plant response rating, Sugarbeets (sugar beet; [5]) | Sugarbeets plant response rating (sugar beet; [6]) | Sugarbeets plant response rating (sugar beet; [7]) | Wheat plant response rating (wheat; [1]) | Wheat plant response rating (wheat; [2]) | Plant response rating, Wheat (wheat; [3]) | Plant response rating, Wheat (wheat; [4]) | Plant response rating, Wheat (wheat; [5]) | Wheat plant response rating (wheat; [6]) | Wheat plant response rating (wheat; [7]) | Nutsedge plant response rating (purple nutsedge; [1]) | Nutsedge plant response rating (purple nutsedge; [2]) | Plant response rating, Nutsedge (purple nutsedge; [3]) | Plant response rating, Nutsedge (purple nutsedge; [4]) | Plant response rating, Nutsedge (purple nutsedge; [5]) | Nutsedge plant response rating (purple nutsedge; [6]) | Nutsedge plant response rating (purple nutsedge; [7]) | Nutsedge plant response rating (purple nutsedge; [8]) | Rice plant response rating (rice; [1]) | Rice plant response rating (rice; [9]) | Rice plant response rating (rice; [10]) | Rice plant response rating (rice; [11]) | S. Flatsedge plant response rating (smallflower flatsedge; [1]) | S. Flatsedge plant response rating (smallflower flatsedge; [9]) | S. Flatsedge plant response rating (smallflower flatsedge; [11]) | Ducksalad plant response rating (duck salad; [1]) | Ducksalad plant response rating (duck salad; [9]) | Ducksalad plant response rating (duck salad; [10]) | Ducksalad plant response rating (duck salad; [11]) | Barnyardgrass plant response rating (bamyardgrass; [1]) | Barnyardgrass plant response rating (bamyardgrass; [9]) | Barnyardgrass plant response rating (bamyardgrass; [10]) | Barnyardgrass plant response rating (bamyardgrass; [11])

— patent US6737383B1, “Herbicidal oxadiazolidines” (priority 1999, dated 2004)
